From article PMC9956870, “Exploring functional and structural features of chemically related natural prenylated hydroquinone and benzoic acid from Piper crassinervium (Piperaceae) on bacterial peroxiredoxin inhibition” (PLOS ONE, 2023) come the findings set out here.

SMILES strings stand for the structures.

One assay deals with T1, Prx2 (HsPrx2) (Homo sapiens, UniProt P32119).
T1 construct: gene PRDX2
T1 sequence (P32119 2-198): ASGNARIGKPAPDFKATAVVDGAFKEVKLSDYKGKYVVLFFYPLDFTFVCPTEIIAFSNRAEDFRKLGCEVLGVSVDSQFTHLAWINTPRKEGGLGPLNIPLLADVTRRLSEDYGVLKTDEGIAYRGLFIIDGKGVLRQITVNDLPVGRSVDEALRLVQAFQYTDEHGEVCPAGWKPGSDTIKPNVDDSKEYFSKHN
The assay can be described thus: NADPH-coupled peroxidase assay (yeast Trx system). The assay is classed as biochemical.

In assay [1] the target is T2, alkyl hydroperoxide reductase C (SeAhpC) (Staphylococcus epidermidis, UniProt Q8CMQ2).
T2 construct: gene ahpC
T2 sequence (Q8CMQ2 1-189): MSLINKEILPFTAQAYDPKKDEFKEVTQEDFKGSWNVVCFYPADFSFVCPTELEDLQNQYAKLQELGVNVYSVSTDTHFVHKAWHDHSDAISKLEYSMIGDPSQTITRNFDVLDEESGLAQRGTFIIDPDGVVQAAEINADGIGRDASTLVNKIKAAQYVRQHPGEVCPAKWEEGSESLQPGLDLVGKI
The assay is described as follows: NADPH-coupled peroxidase assay. The format is biochemical.

On to `CCN1C(=O)C=CC1=O` [NEM, N-ethylmaleimide], for which the peroxidase initial rate at Prx2 (HsPrx2) is listed as 0.02 ± 0.01 μMs^-1 (v0; untreated 0.62 ± 0.03). The NADPH-coupled peroxidase assay entry in assay [1] is “As expected for the samples subjected to NEM treatment, no peroxidase activity was detected to both enzymes”.
